Results: patent US9518052B2, “Pyrazolopyridines and pyrazolopyrimidines” (Pfizer Inc., priority 2014, dated 2016)

Legend:
[1] = molecular target: JAK1 (Homo sapiens (Human), UniProt P23458); assay: JAK Caliper Enzyme Assay at 1 mM ATP (JAK1); format: biochemical; details: Caliper assay at 1 mM ATP
[2] = molecular target: JAK2 (Homo sapiens (Human), UniProt O60674); assay: JAK Caliper Enzyme Assay at 1 mM ATP (JAK2); format: biochemical; details: Caliper assay at 1 mM ATP
[3] = molecular target: JAK3 (Homo sapiens (Human), UniProt P52333); assay: JAK Caliper Enzyme Assay at 1 mM ATP (JAK3); format: biochemical; details: Caliper assay at 1 mM ATP
[4] = molecular target: TYK2 (Homo sapiens (Human), UniProt P29597); assay: JAK Caliper Enzyme Assay at 1 mM ATP (TYK2); format: biochemical; details: Caliper assay at 1 mM ATP
[5] = test system: rhIFNγ stimulated STAT-3 phosphorylation in the A549 human epithelial cell line; assay: A549 Cell Assay: Inhibition of pSTAT3; format: cell-based; details: A549 cells
Procedure: A549 Cell Assay: Inhibition of pSTAT3
An assay measuring the efficacy of JAK inhibitors on the functional response of recombinant human interferon γ (rhIFNγ) stimulated STAT-3 phosphorylation in the A549 human epithelial cell line.
A549 cells (ATCC #CCL-185), were plated at 30,000 cells/well in 96 well flat bottomed tissue culture plates (BD#353072) in 200 μL of growth medium (DMEM, Pfizer media prep, with 10% Fetal Bovine Serum, Sigma #F4135, 2 mM L-Glutamine, Pfizer media prep, 100 U/mL penicillin, Pfizer media prep, and 200 μg/ml streptomycin, Pfizer media prep), and cultured at 37° C., 5% CO2 incubator for 18 hours. Growth medium was removed by vacuum aspiration (V&P Scientific #vp187 bp-60), and 90 μL of pre-warmed assay medium (DMEM with 0.2% BSA, Miltenyi #130-091-376) was added to each well and incubated for 15 minutes at 37° C. 10 μL of vehicle control or test compound (final concentration range of 0.3 nM to 10 μM with 0.1% DMSO) was added to the cells. Plates were incubated at 37° C. for 1 hour. After compound incubation, 10 μL of 220 ng/mL recombinant human IFNγ (R&D Systems #285-IF, final rhIFNγ concentration of 20 ng/mL) was added to the cells and plates were incubated for 30 minutes at 37° C. Wells containing A549 cells, medium with 0.1% DMSO and no rhIFNγ were used as background controls. After rhIFNγ stimulation, media was aspirated from each well and 35 μL/well of iced-cold MSD lysis buffer containing protease and phosphatase inhibitors from Phospho-STAT3 Tyr705 assay kit (Meso-Scale Discovery #K150DID) was added to each well. Plates were incubated at 4° C. with shaking for 30 minutes. Cell lysates were assayed following the MSD Phospho-STAT3 Tyr705 assay kit protocol to detect pSTAT3.
(§1) Data were collected and transformed into percent inhibition and calculated using the following formula: […]

[6] = test system: rhIL-2 stimulated STAT5 phosphorylation in isolated human T cells; assay: Human T Cell Assay: Inhibition of pSTAT5; format: cell-based
Procedure: Human T Cell Assay: Inhibition of pSTAT5
An assay measuring the efficacy of JAK inhibitors on the functional response of recombinant human interleukin-2 (rhIL-2) stimulated STAT5 phosphorylation in isolated human T cells.
Human whole blood from individual donors was collected from the phlebotomy unit on-site. Peripheral venous blood (30-60 mL) from healthy volunteers of either sex was used as the source of T cells. T cell isolation from venous whole blood is routinely performed in a class II microbiological safety cabinet. Each sample was collected into between 3 and 6 10 mL Sodium Heparin Vacutainer tubes (BD #367874). The blood was poured into sterile 50 mL conicals (Corning #430828) and incubated with the T cell Rosette Sep Cocktail (Stemcell Technologies #15061) at 50 μL/mL antibody/blood ratio for 20 min. with shaking at room temperature. The blood/antibody mixture was then diluted 1:2 with PBS (Pfizer media prep)/2% FBS (Sigma #F4135) and 30 mL of the mixture was layered onto 15 mL Ficoll-Hypaque (GE Healthcare #17-1440-03) in 50 mL conical tubes. The tubes were then centrifuged at 1200×g for 20 min. at room temperature with no brake. Following centrifugation the T cells formed a buffy coat between the Ficoll-Hypaque and plasma layers. The plasma above the buffy coats was removed to within 5 mm of the buffy coat using a sterile Pasteur pipette. The buffy coats were then collected into fresh sterile 50 mL conical tubes containing 25 mL PBS/2% FBS (2 buffy coats per 50 mL conical). PBS/2% FBS was added to the buffy coat cells such that the final volume in the tube was 50 mL. The tubes were then centrifuged at 200×g for 15 min. at room temperature. The supernatant was discarded and the pellet re-suspended in 10-20 mL of DMEM (Pfizer media prep) Assay media/0.2% BSA (Miltenyi #130-091-376). A differential cell count was performed using a haemacytometer and cells were diluted to 1.1×10^6 T cells/ml in DMEM/0.2% BSA media. Compounds (10 mM-0.3 μM) were diluted with Hanks Balanced Salt Solution (HBSS) (Sigma #H6648) at 1:100 dilution. Immediately following cell isolation and compound dilution, 90 μl/well of T cells (˜1×10^6/ml) in assay medium (DMEM+0.2% BSA) was added to the VWR Deep well V bottom plate (#3906-520-300). 10 μl/well of compound (final concentration range of 10 μM-0.3 nM with 0.1% DMSO) or 0.1% DMSO in HBSS as controls was added to the appropriate wells. Plates were incubated for 1 hour at 37° C., 5% CO2 incubator. 10 μl of 3.3 μg/mL rhIL-2 (R&D Systems #202-IL) was added to the cells (300 ng/ml final assay concentration). Wells containing T cells, medium with 0.1% DMSO and no rhIL-2 were used as background controls. […]
as §1

Chain of JAK1 (P23458 whole entry, species assumed): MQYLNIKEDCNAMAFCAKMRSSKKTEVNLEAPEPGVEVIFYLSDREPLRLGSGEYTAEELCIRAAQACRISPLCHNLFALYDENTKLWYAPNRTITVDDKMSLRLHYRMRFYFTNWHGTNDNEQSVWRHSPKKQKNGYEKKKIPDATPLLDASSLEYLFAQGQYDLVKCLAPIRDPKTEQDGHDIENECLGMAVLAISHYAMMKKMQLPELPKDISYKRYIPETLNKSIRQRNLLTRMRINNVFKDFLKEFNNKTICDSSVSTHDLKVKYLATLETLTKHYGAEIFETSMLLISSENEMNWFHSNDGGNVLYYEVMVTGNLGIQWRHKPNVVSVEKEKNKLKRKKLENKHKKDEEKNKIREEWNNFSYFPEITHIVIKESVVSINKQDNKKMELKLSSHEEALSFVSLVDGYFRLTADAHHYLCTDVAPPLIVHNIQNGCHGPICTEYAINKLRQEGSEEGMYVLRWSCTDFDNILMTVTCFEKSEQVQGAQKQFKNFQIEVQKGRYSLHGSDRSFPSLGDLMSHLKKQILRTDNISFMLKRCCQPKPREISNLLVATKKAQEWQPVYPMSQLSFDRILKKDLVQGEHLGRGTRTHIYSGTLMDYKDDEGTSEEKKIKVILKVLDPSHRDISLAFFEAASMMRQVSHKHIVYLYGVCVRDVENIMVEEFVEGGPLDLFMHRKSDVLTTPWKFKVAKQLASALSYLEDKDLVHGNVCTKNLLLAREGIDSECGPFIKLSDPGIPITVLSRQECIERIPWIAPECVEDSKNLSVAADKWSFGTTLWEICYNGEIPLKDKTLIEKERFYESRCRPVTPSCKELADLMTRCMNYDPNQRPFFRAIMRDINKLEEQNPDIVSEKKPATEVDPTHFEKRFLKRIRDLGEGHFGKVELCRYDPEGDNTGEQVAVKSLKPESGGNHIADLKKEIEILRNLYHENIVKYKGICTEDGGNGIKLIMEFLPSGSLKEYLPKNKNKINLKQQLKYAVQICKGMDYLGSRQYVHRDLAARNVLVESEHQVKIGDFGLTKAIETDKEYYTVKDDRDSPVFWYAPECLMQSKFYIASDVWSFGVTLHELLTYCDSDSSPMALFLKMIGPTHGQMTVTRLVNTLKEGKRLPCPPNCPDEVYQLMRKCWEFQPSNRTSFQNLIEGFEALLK
Chain of TYK2 (P29597 whole entry, species assumed): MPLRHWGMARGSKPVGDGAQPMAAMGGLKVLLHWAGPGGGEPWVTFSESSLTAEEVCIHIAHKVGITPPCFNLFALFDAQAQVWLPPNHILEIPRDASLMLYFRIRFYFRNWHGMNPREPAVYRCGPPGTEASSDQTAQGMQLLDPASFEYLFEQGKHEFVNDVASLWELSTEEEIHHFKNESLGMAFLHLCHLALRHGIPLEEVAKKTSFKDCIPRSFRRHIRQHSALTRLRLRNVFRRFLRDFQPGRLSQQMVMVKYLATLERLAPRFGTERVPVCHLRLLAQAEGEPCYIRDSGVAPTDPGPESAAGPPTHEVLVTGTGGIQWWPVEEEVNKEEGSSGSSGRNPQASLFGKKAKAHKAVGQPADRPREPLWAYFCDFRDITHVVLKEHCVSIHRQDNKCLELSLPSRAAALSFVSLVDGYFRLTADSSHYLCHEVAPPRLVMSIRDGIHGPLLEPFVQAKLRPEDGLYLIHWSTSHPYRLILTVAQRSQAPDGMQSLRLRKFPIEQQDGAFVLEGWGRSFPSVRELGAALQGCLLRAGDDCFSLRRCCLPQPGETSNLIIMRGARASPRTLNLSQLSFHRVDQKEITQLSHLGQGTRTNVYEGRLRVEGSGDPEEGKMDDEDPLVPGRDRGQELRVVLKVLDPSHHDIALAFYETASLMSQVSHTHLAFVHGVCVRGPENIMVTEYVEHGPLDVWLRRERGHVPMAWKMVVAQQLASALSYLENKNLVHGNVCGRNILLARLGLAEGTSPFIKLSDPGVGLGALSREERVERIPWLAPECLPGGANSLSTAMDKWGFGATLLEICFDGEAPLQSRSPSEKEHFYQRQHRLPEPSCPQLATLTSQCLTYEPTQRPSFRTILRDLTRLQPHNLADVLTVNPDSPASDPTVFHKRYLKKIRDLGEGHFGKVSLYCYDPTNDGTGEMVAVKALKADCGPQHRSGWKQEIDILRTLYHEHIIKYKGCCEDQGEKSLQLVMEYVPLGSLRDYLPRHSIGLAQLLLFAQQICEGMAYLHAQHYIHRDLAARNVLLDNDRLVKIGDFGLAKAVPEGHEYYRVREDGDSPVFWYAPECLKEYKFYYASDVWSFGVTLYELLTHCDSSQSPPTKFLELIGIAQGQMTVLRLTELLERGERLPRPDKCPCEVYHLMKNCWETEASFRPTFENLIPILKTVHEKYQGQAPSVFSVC
Chain of JAK2 (O60674 whole entry, species assumed): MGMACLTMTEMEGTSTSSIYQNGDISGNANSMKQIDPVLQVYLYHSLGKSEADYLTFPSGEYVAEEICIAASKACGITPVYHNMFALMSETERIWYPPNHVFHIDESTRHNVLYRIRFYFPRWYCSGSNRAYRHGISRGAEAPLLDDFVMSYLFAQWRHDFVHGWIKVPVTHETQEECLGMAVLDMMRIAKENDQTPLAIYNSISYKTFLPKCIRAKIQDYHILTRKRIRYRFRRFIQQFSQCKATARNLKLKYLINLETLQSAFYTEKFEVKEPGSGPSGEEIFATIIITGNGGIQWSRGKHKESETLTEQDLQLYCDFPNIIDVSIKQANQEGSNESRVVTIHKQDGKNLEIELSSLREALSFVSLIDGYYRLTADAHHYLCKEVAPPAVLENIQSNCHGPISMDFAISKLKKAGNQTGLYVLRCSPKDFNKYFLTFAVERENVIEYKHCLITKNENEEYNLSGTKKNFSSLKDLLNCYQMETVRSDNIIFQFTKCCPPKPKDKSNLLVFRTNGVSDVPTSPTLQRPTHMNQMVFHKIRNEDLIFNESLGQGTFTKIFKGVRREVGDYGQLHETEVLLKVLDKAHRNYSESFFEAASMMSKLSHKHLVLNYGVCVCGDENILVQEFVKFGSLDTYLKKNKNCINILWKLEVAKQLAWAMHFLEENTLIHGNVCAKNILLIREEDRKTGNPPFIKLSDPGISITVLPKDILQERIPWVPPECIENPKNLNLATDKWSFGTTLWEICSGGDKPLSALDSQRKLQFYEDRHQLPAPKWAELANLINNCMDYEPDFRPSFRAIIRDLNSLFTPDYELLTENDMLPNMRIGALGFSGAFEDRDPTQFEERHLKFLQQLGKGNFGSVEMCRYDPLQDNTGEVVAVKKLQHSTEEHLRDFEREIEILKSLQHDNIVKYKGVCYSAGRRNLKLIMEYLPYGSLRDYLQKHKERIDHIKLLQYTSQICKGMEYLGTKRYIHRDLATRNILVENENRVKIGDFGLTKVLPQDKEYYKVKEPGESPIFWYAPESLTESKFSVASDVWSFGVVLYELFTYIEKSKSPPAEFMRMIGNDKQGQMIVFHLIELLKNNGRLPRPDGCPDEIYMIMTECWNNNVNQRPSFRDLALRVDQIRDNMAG
Chain of JAK3 (P52333 whole entry, species assumed): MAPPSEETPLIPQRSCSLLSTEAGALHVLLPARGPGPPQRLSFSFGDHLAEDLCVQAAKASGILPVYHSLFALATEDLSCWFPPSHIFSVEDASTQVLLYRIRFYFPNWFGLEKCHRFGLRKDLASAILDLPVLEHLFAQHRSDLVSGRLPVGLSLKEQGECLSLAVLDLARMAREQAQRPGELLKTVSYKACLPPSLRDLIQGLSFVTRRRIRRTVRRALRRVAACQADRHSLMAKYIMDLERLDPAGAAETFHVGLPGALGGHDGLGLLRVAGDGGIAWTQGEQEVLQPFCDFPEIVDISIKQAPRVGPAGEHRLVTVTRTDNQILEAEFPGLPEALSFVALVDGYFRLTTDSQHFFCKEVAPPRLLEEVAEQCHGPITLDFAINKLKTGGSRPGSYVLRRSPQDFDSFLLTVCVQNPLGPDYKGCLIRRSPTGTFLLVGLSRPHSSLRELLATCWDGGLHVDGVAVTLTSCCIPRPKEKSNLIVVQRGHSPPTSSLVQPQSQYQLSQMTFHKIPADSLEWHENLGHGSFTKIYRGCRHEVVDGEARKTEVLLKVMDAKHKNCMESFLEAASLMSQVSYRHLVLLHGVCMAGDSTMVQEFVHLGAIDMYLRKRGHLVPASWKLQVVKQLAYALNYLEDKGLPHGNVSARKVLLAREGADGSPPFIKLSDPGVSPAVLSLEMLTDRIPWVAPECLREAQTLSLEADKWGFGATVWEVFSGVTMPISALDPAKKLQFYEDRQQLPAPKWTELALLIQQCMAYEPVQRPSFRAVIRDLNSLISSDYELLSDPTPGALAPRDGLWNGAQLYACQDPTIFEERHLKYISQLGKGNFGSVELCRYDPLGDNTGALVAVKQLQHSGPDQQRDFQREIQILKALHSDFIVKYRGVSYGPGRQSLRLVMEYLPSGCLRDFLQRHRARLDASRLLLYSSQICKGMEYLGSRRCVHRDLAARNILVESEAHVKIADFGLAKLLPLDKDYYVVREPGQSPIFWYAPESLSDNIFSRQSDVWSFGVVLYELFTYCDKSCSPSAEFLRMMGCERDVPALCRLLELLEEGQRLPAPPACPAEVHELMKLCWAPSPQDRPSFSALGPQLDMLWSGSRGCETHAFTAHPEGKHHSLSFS

Cc1ccc(-c2nnc(-c3n[nH]c4cc(-c5cc(F)c(O)cc5CC(F)(F)F)nc(NCc5ccccc5N(C)S(C)(=O)=O)c34)[nH]2)cn1 [Example 166, N-{2-[({6-[5-fFuoro-4-hydroxy-2-(2,2,2-trifluoroethyl)phenyl]-3-[5-(6-methylpyridin-3-yl)-4H-1,2,4-triazol-3-yl]-1H-pyrazolo[4,3-c]pyridin-4-yl}amino)methyl]phenyl}-N-methylmethanesulfonamide]
IC50 [1]: 20.9 nM
IC50 [2]: 97.4 nM
IC50 [3]: 322 nM
IC50 [4]: 126 nM
IC50 [5]: 697 nM
IC50 [6]: 591 nM
